Laboratory results taken from patent US20250206738A1, “WRN INHIBITORS” (Nimbus Wadjet, Inc., priority 2023, published 2025).

What was measured:
[1] = biological target: T1, human Werner helicase (WRN, Uniprot Q14191, amino acids 517-1235 with L1074F point mutation; WRN-BV08) (Homo sapiens, UniProt Q14191, L1074F); assay: WRN (BV08) ADP-Glo assay; assay type: biochemical; conditions: WRN-BV08 (aa 517-1235, L1074F); read-out: ADP-Glo_hWRN_IC50
T1 construct: Uniprot Q14191, amino acids 517-1235 with L1074F point mutation; 8xHis (C, cleaved yes); TEV cleavage site (ENLYFQG) (C, cleaved yes); made in house; host or cells: Sf9 insect cells (baculovirus, pFastBac)
Method in brief: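 ADP formed by untagged WRN helicase fragment (aa 517-1235, L1074F; 0.15 nM final) on 0.1 nM DNA duplex with […], 60 min at 25 °C after 15 min compound preincubation, pH 7.5 Bicine buffer. Luminescent ADP-Glo readout; IC50 from 4-parameter fit of % inhibition.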

[2] = tested on: p21 induction in HCT 116 cells; assay: p21 induction in cells (In-Cell Western, p21/GAPDH ratio); assay type: cell-based; conditions: Homo sapiens, HCT-116, 24 h, 24 h compound incubation, read-out: P21_EC50
Method in brief: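 p21 and GAPDH signals quantified by In-Cell Western after 24 h compound exposure of HCT 116 cells (11 concentrations, 2-fold steps, usual top 10 μM). Percent activation from p21/GAPDH ratio relative to DMSO (low) and internal WRN inhibitor (high) controls; curve fit gave EC50.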

T1 sequence (Q14191 with tags, fused parts or gaps L1074F): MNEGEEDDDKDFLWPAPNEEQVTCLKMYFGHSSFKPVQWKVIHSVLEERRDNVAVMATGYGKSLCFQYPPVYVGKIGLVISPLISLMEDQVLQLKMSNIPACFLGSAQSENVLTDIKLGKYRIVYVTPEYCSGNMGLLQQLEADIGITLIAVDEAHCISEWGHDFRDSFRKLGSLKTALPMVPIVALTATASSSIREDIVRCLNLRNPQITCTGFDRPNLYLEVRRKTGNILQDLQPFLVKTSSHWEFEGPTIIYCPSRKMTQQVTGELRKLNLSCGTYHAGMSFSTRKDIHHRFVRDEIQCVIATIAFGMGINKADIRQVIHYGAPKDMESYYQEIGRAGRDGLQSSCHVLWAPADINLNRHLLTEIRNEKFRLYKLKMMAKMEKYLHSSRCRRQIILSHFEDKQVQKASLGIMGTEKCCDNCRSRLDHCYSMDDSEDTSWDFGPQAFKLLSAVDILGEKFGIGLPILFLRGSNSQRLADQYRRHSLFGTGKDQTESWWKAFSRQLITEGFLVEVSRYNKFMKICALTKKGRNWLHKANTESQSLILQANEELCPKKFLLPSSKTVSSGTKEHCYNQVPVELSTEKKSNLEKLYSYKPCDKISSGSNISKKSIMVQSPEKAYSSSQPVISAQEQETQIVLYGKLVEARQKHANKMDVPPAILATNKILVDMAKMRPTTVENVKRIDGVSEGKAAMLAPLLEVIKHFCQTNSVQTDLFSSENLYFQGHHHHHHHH

Row | Structure (SMILES) | IC50 [1] | EC50 [2]
1 | CCc1c(N2CCN(C(=O)c3cc(C(C)(C)O)cnc3OC)[C@H]3CC[C@@H]32)c(=O)c2nn(C3=CCOCC3)nc2n1CC(=O)NC12CC(C3CC3)(C1)C2 [I-221, N-(3-cyclopropylbicyclo[1.1.1]pentan-1-yl)-2-(2-(3,6-dihydro-2H-pyran-4-yl)-5-ethyl-6-((1S,6S)-5-(5-(2-hydroxypropan-2-yl)-2-methoxynicotinoyl)-2,5-diazabicyclo[4.2.0]octan-2-yl)-7-oxo-2,7-dihydro-4H-[1,2,3]triazolo[4,5-b]pyridin-4-yl)acetamide] | 5 to 50 nM | 2000 to 5000 nM
2 | CCc1c(N2CCN(C(=O)c3ncnc(C)c3O)[C@H]3CC[C@@H]32)c(=O)n2nc(C3=CCOCC3)nc2n1CC(=O)NC12CC(C(C)C)(C1)C2 [I-222, 2-(2-(3,6-dihydro-2H-pyran-4-yl)-5-ethyl-6-((1S,6S)-5-(5-hydroxy-6-methylpyrimidine-4-carbonyl)-2,5-diazabicyclo[4.2.0]octan-2-yl)-7-oxo-[1,2,4]triazolo[1,5-a]pyrimidin-4(7H)-yl)-N-(3-isopropylbicyclo[1.1.1]pentan-1-yl)acetamide] | 5 to 50 nM | ≤ 500 nM
3 | CCc1c(N2CCN(C(=O)c3ncnc(C)c3O)[C@H]3CC[C@@H]32)c(=O)c2nn(-c3ccnc(OC(F)F)c3)nc2n1CC(=O)NC12CC(C3CC3)(C1)C2 [I-223, N-(3-cyclopropylbicyclo[1.1.1]pentan-1-yl)-2-(2-(2-(difluoromethoxy)pyridin-4-yl)-5-ethyl-6-((1S,6S)-5-(5-hydroxy-6-methylpyrimidine-4-carbonyl)-2,5-diazabicyclo[4.2.0]octan-2-yl)-7-oxo-2,7-dihydro-4H-[1,2,3]triazolo[4,5-b]pyridin-4-yl)acetamide] | 5 to 50 nM | > 5000 nM
4 | CCc1c(N2CCN(C(=O)c3ncnc(C)c3O)[C@H]3CC[C@@H]32)c(=O)c2nc(N(C)C)cnc2n1CC(=O)NC12CC(C3CCCC3)(C1)C2 [I-224, N-(3-cyclopentylbicyclo[1.1.1]pentan-1-yl)-2-(2-(dimethylamino)-6-ethyl-7-((1S,6S)-5-(5-hydroxy-6-methylpyrimidine-4-carbonyl)-2,5-diazabicyclo[4.2.0]octan-2-yl)-8-oxopyrido[2,3-b]pyrazin-5(8H)-yl)acetamide] | 5 to 50 nM | 500 to 2000 nM
5 | CCc1c(N2CCN(C(=O)c3ncnc(C)c3O)[C@H]3CC[C@@H]32)c(=O)n2nc(C3=CCOCC3)nc2n1CC(=O)NC12CC(C3CC3)(C1)C2 [I-225, N-(3-cyclopropylbicyclo[1.1.1]pentan-1-yl)-2-(2-(3,6-dihydro-2H-pyran-4-yl)-5-ethyl-6-((1S,6S)-5-(5-hydroxy-6-methylpyrimidine-4-carbonyl)-2,5-diazabicyclo[4.2.0]octan-2-yl)-7-oxo-[1,2,4]triazolo[1,5-a]pyrimidin-4(7H)-yl)acetamide] | 5 to 50 nM | ≤ 500 nM
6 | CCc1c(N2CCN(C(=O)c3ncnc(C)c3O)[C@H]3CC[C@@H]32)c(=O)c2nc(N(C)C)cnc2n1CC(=O)NC12CC(C3CCC3)(C1)C2 [I-226, N-(3-cyclobutylbicyclo[1.1.1]pentan-1-yl)-2-(2-(dimethylamino)-6-ethyl-7-((1S,6S)-5-(5-hydroxy-6-methylpyrimidine-4-carbonyl)-2,5-diazabicyclo[4.2.0]octan-2-yl)-8-oxopyrido[2,3-b]pyrazin-5(8H)-yl)acetamide] | 5 to 50 nM | ≤ 500 nM
7 | CCc1c(N2CCN(C(=O)c3ncnc(C)c3O)[C@H]3CC[C@@H]32)c(=O)c2nc(C)c(C)nc2n1CC(=O)NC12CC(C3CC3)(C1)C2 [I-227, N-(3-cyclopropylbicyclo[1.1.1]pentan-1-yl)-2-(6-ethyl-7-((1S,6S)-5-(5-hydroxy-6-methylpyrimidine-4-carbonyl)-2,5-diazabicyclo[4.2.0]octan-2-yl)-2,3-dimethyl-8-oxopyrido[2,3-b]pyrazin-5(8H)-yl)acetamide] | 5 to 50 nM | 500 to 2000 nM
8 | CCc1c(N2CCN(C(=O)c3ncnc(C)c3O)C(C)(C)C2)c(=O)c2nn(-c3ccnc(OC)c3)nc2n1CC(=O)NC12CC(C3CC3)(C1)C2 [I-228, N-(3-cyclopropylbicyclo[1.1.1]pentan-1-yl)-2-(5-ethyl-6-(4-(5-hydroxy-6-methylpyrimidine-4-carbonyl)-3,3-dimethylpiperazin-1-yl)-2-(2-methoxypyridin-4-yl)-7-oxo-2,7-dihydro-4H-[1,2,3]triazolo[4,5-b]pyridin-4-yl)acetamide] | 5 to 50 nM | 500 to 2000 nM
9 | CCc1c(N2CCN(C(=O)c3ncnc(C)c3O)[C@H]3CC[C@@H]32)c(=O)c2nc(N(C)C)cnc2n1CC(=O)NC1CC2(CCC2)C1 [I-229, 2-(2-(dimethylamino)-6-ethyl-7-((1S,6S)-5-(5-hydroxy-6-methylpyrimidine-4-carbonyl)-2,5-diazabicyclo[4.2.0]octan-2-yl)-8-oxopyrido[2,3-b]pyrazin-5(8H)-yl)-N-(spiro[3.3]heptan-2-yl)acetamide] | 5 to 50 nM | 2000 to 5000 nM
10 | CCc1c(N2CCN(C(=O)c3ncnc(C)c3O)[C@H]3CC[C@@H]32)c(=O)c2nc(N(C)C)cnc2n1CC(=O)NC1CC2(CCCC2)C1 [I-230, 2-(2-(dimethylamino)-6-ethyl-7-((1S,6S)-5-(5-hydroxy-6-methylpyrimidine-4-carbonyl)-2,5-diazabicyclo[4.2.0]octan-2-yl)-8-oxopyrido[2,3-b]pyrazin-5(8H)-yl)-N-(spiro[3.4]octan-2-yl)acetamide] | 5 to 50 nM | > 5000 nM
11 | CCc1c(N2CCN(C(=O)c3cccc4ncoc34)CC2)c(=O)n2nc(-c3ccnc(OC)c3)nc2n1CC(=O)NC12CC(C(F)(F)F)(C1)C2 [I-231, 2-(6-(4-(benzo[d]oxazole-7-carbonyl)piperazin-1-yl)-5-ethyl-2-(2-methoxypyridin-4-yl)-7-oxo-[1,2,4]triazolo[1,5-a]pyrimidin-4(7H)-yl)-N-(3-(trifluoromethyl)bicyclo[1.1.1]pentan-1-yl)acetamide] | 5 to 50 nM | 2000 to 5000 nM
12 | CCc1c(N2CCN(C(=O)c3ncnc(C)c3O)[C@H]3CC[C@@H]32)c(=O)c2nc(N(C)C)cnc2n1CC(=O)NC12CC(C3CC3)(C1)C2 [I-232, N-(3-cyclopropylbicyclo[1.1.1]pentan-1-yl)-2-(2-(dimethylamino)-6-ethyl-7-((1S,6S)-5-(5-hydroxy-6-methylpyrimidine-4-carbonyl)-2,5-diazabicyclo[4.2.0]octan-2-yl)-8-oxopyrido[2,3-b]pyrazin-5(8H)-yl)acetamide] | 5 to 50 nM | 500 to 2000 nM
13 | CCc1c(N2CCN(C(=O)c3c(OC)ncc(C)c3O)[C@H]3CC[C@@H]32)c(=O)c2nc(N(C)C)cnc2n1CC(=O)NC12CC(C3CC3)(C1)C2 [I-233, N-(3-cyclopropylbicyclo[1.1.1]pentan-1-yl)-2-(2-(dimethylamino)-6-ethyl-7-((1S,6S)-5-(4-hydroxy-2-methoxy-5-methylnicotinoyl)-2,5-diazabicyclo[4.2.0]octan-2-yl)-8-oxopyrido[2,3-b]pyrazin-5(8H)-yl)acetamide] | 5 to 50 nM | 500 to 2000 nM
14 | CCc1c(N2CCN(C(=O)c3ncnc(C)c3O)CC2)c(=O)n2nc(C3=CCOCC3)nc2n1CC(=O)NC12CC(C(C)C)(C1)C2 [I-234, 2-(2-(3,6-dihydro-2H-pyran-4-yl)-5-ethyl-6-(4-(5-hydroxy-6-methylpyrimidine-4-carbonyl)piperazin-1-yl)-7-oxo-[1,2,4]triazolo[1,5-a]pyrimidin-4(7H)-yl)-N-(3-isopropylbicyclo[1.1.1]pentan-1-yl)acetamide] | 5 to 50 nM | 500 to 2000 nM
15 | CCc1c(N2CCN(C(=O)CC3CCCC(=O)N3)[C@H]3CC[C@@H]32)c(=O)c2nn(C3=CCOCC3)nc2n1CC(=O)NC12CC(C(C)C)(C1)C2 (stereo partly drawn) [I-235, 2-(2-(3,6-dihydro-2H-pyran-4-yl)-5-ethyl-7-oxo-6-((1S,6S)-5-(2-(6-oxopiperidin-2-yl)acetyl)-2,5-diazabicyclo[4.2.0]octan-2-yl)-2,7-dihydro-4H-[1,2,3]triazolo[4,5-b]pyridin-4-yl)-N-(3-isopropylbicyclo[1.1.1]pentan-1-yl)acetamide] | 5 to 50 nM | > 5000 nM
16 | CCc1c(N2CCN(C(=O)c3c(OC)ncc(C)c3O)CC2)c(=O)n2nc(C3=CCOCC3)nc2n1CC(=O)NC12CC(C(F)(F)F)(C1)C2 [I-236, 2-(2-(3,6-dihydro-2H-pyran-4-yl)-5-ethyl-6-(4-(4-hydroxy-2-methoxy-5-methylnicotinoyl)piperazin-1-yl)-7-oxo-[1,2,4]triazolo[1,5-a]pyrimidin-4(7H)-yl)-N-(3-(trifluoromethyl)bicyclo[1.1.1]pentan-1-yl)acetamide] | 5 to 50 nM | 2000 to 5000 nM
17 | CCc1c(N2CCN(C(=O)c3ncnc(C)c3O)[C@H]3CC[C@@H]32)c(=O)c2nc(N(C)C)cnc2n1CC(=O)NC12CC(OC(F)(F)F)(C1)C2 [I-237, 2-(2-(dimethylamino)-6-ethyl-7-((1S,6S)-5-(5-hydroxy-6-methylpyrimidine-4-carbonyl)-2,5-diazabicyclo[4.2.0]octan-2-yl)-8-oxopyrido[2,3-b]pyrazin-5(8H)-yl)-N-(3-(trifluoromethoxy)bicyclo[1.1.1]pentan-1-yl)acetamide] | 5 to 50 nM | 2000 to 5000 nM
